Results from patent US9708334B2, “Substituted 2,4,5,6-tetrahydropyrrolo[3,4-c]pyrazole and 4,5,6,7-tetrahydro-2H-pyrazolo[4,3-c]pyridine compounds as GlyT1 inhibitors” (DART NEUROSCIENCE (CAYMAN) LTD., priority 2014, dated 2017).

Biological target: T1, GlyT1 (Homo sapiens, UniProt P48067)
T1 construct: expressed in transfected cells
T1 sequence (P48067 1-706): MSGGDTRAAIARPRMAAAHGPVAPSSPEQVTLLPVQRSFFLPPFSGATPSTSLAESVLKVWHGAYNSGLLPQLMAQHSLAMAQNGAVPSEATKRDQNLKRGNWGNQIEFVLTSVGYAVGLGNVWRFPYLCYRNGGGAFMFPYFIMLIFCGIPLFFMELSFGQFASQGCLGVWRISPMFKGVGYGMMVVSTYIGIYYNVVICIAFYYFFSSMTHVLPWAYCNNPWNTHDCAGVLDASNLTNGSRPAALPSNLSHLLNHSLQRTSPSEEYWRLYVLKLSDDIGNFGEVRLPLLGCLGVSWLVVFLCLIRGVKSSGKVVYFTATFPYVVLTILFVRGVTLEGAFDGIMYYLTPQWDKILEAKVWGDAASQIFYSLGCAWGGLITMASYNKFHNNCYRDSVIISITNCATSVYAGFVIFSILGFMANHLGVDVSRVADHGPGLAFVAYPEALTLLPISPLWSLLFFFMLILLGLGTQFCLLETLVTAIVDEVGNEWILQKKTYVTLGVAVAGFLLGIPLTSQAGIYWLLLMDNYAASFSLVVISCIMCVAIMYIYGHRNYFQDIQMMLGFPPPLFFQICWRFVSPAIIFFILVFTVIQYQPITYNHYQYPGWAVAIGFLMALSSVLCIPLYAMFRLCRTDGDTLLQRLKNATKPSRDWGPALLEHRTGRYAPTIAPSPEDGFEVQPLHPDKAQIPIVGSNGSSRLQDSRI
Experiment: Glycine Transporter 1 (GlyT1) uptake assay, scintillation proximity assay of [14C]-glycine uptake
Assay type: cell-based
Conditions: SPA, four parameter logistic fit, read-out: GlyT1 (pIC50) (converted)
Protocol: Glycine Transporter 1 (GlyT1) Uptake Assay
Plates were then read on a MicroBeta plate counter (Perkin Elmer). Dose-response data for tested compounds were analyzed and curves were fit using a four parameter logistic fit to determine IC50 values. […]

| IC50 | Structure (SMILES) |
| --- | --- |
| 100 to 1000 nM | COc1c(C#N)ccc(OC(C)C(F)(F)F)c1C(=O)N1CCc2nn(-c3ccc(F)cc3)cc2C1 (stereo not drawn) [Example 4, 3-(2-(4-Fluorophenyl)-4,5,6,7-tetrahydro-2H-pyrazolo[4,3-c]pyridine-5-carbonyl)-2-methoxy-4-((1,1,1-trifluoropropan-2-yl)oxy)benzonitrile] |
| 100 to 1000 nM | COc1c(C#N)ccc(CCC(C)(C)C)c1C(=O)N1Cc2cn(-c3ccc(F)cc3)nc2C1 [Example 10, 4-(3,3-Dimethylbutyl)-3-(2-(4-fluorophenyl)-2,4,5,6-tetrahydropyrrolo[3,4-c]pyrazole-5-carbonyl)-2-methoxybenzonitrile] |
| < 100 nM | COc1c(C#N)ccc(OC(C)C(F)F)c1C(=O)N1Cc2cn(-c3ccc(F)cc3)nc2C1 (stereo not drawn) [Example 11, 4-[(1 1-Difluoropropan-2-yl)oxy]-3-[2-(4-fluorophenyl)-2H 4H 5H 6H-pyrrolo[3,4-c]pyrazole-5-carbonyl]-2-methoxybenzonitrile] |
| 100 to 1000 nM | COc1c(C#N)ccc(C2(F)CCC(F)(F)CC2)c1C(=O)N1CCc2nn(-c3ccc(F)cn3)cc2C1 [Example 12, 3-[2-(5-Fluoropyridin-2-yl)-2H 4H 5H 6H 7H-pyrazolo[4,3-c]pyridine-5-carbonyl]-2-methoxy-4-(1 4 4-trifluorocyclohexyl)benzonitrile] |
| 1000 to 10000 nM | COc1c(C#N)ccc(C2(F)CCC(F)(F)CC2)c1C(=O)N1CCc2nn(-c3cccnc3)cc2C1 [Example 13, 2-Methoxy-3-[2-(pyridin-3-yl)-2H 4H 5H 6H 7H-pyrazolo[4,3-c]pyridine-5-carbonyl]-4-(1 4 4-trifluorocyclohexyl)benzonitrile] |
| 100 to 1000 nM | COc1c(C#N)ccc(C2(F)CCOCC2)c1C(=O)N1CCc2nn(-c3ccc(F)cn3)cc2C1 [Example 14, 4-(4-Fluorooxan-4-yl)-3-[2-(5-fluoropyridin-2-yl)-2H 4H 5H 6H 7H-pyrazolo[4,3-c]pyridine-5-carbonyl]-2-methoxybenzonitrile] |
| 100 to 1000 nM | COc1c(C#N)ccc(C2(F)CCC(F)(F)CC2)c1C(=O)N1Cc2cn(-c3ccc(F)cn3)nc2C1 [Example 15, 3-[2-(5-Fluoropyridin-2-yl)-2H 4H 5H 6H-pyrrolo[3,4-c]pyrazole-5-carbonyl]-2-methoxy-4-(1 4 4-trifluorocyclohexyl)benzonitrile] |
| < 100 nM | COc1cc(-n2cc3c(n2)CN(C(=O)c2c(O[C@@H](C)C(F)(F)F)ccc(C#N)c2Cl)C3)ccn1 [Example 16, 2-Chloro-3-[2-(2-methoxypyridin-4-yl)-2H 4H 5H 6H-pyrrolo[3,4-c]pyrazole-5-carbonyl]-4-{[(2S)-1 1 1-trifluoropropan-2-yl]oxy}benzonitrile] |
| < 100 nM | Cc1cc(-n2cc3c(n2)CN(C(=O)c2c(O[C@@H](C)C(F)(F)F)ccc(C#N)c2Cl)C3)ccn1 [Example 17, 2-Chloro-3-[2-(2-methylpyridin-4-yl)-2H 4H 5H 6H-pyrrolo[3,4-c]pyrazole-5-carbonyl]-4-{[(2S)-1 1 1-trifluoropropan-2-yl]oxy}benzonitrile] |
| < 100 nM | COc1c(C#N)ccc(O[C@@H](C)C(F)(F)F)c1C(=O)N1Cc2cn(-c3ccnc(C)c3)nc2C1 [Example 18, 2-Methoxy-3-[2-(2-methylpyridin-4-yl)-2H 4H 5H 6H-pyrrolo[3,4-c]pyrazole-5-carbonyl]-4-{[(2S)-1 1 1-trifluoropropan-2-yl]oxy}benzonitrile] |
| < 100 nM | Cc1cccc(-n2cc3c(n2)CN(C(=O)c2c(O[C@@H](C)C(F)(F)F)ccc(C#N)c2Cl)C3)n1 [Example 19, 2-Chloro-3-[2-(6-methylpyridin-2-yl)-2H 4H 5H 6H-pyrrolo[3,4-c]pyrazole-5-carbonyl]-4-{[(2S)-1 1 1-trifluoropropan-2-yl]oxy}benzonitrile] |
| 100 to 1000 nM | COc1c(C#N)ccc(C2(F)CCC2)c1C(=O)N1Cc2cn(-c3cccc(C)n3)nc2C1 [Example 20, 4-(1-Fluorocyclobutyl)-2-methoxy-3-[2-(6-methylpyridin-2-yl)-2H 4H 5H 6H-pyrrolo[3,4-c]pyrazole-5-carbonyl]benzonitrile] |
| 100 to 1000 nM | COc1c(C#N)ccc(C2(F)CCOCC2)c1C(=O)N1Cc2cn(-c3cccc(C)n3)nc2C1 [Example 21, 4-(4-Fluorooxan-4-yl)-2-methoxy-3-[2-(6-methylpyridin-2-yl)-2H 4H 5H 6H-pyrrolo[3,4-e]pyrazole-5-carbonyl]benzonitrile] |
| 100 to 1000 nM | COc1c(C#N)ccc(C2(F)CCC2)c1C(=O)N1Cc2cn(-c3cncc(F)c3)nc2C1 [Example 23, 4-(1-Fluorocyclobutyl)-3-[2-(5-fluoropyridin-3-yl)-2H 4H 5H 6H-pyrrolo[3,4-c]pyrazole-5-carbonyl]-2-methoxybenzonitrile] |
| 100 to 1000 nM | COc1c(C#N)ccc(C2(F)CCOCC2)c1C(=O)N1Cc2cn(-c3cncc(F)c3)nc2C1 [Example 24, 4-(4-Fluorooxan-4-yl)-3-[2-(5-fluoropyridin-3-yl)-2H 4H 5H 6H-pyrrolo[3,4-c]pyrazole-5-carbonyl]-2-methoxybenzonitrile] |
| 100 to 1000 nM | N#Cc1ccc(OCC(F)(F)F)c(C(=O)N2Cc3cn(-c4cncc(F)c4)nc3C2)c1Cl [Example 25, 2-Chloro-3-[2-(5-fluoropyridin-3-yl)-2H 4H 5H 6H-pyrrolo[3,4-c]pyrazole-5-carbonyl]-4-(2 2 2-trifluoroethoxy)benzonitrile] |

The remaining lines, values behind:

| Structure (SMILES) | IC50 |
| --- | --- |
| CC(C)Oc1cc(-n2cc3c(n2)CN(C(=O)c2cc(C#N)ccc2OC(C)C(F)(F)F)C3)ccn1 (stereo in doubt) [Example 372, 3-{2-[2-(Propan-2-yloxy)pyridin-4-yl]-2H 4H 5H 6H-pyrrolo[3,4-c]pyrazole-5-carbonyl}-4-{[(2S)-1 1 1-trifluoropropan-2-yl]oxy}benzonitrile] | 100 to 1000 nM |
| CCC(C)Cn1cc2c(n1)CN(C(=O)c1cc(S(C)(=O)=O)ccc1N1CCC(F)(F)CC1)C2 (stereo in doubt) [Example 429, 4 4-Difluoro-1-(4-methanesulfonyl-2-{2-[(2S)-2-methylbutyl]-2H 4H 5H 6H-pyrrolo[3,4-c]pyrazole-5-carbonyl}phenyl)piperidine] | < 100 nM |
| CC(C)Oc1ccc(S(C)(=O)=O)cc1C(=O)N1Cc2cn(-c3ccc(F)cc3)nc2C1 [Example 1, (2-(4-Fluorophenyl)pyrrolo[3,4-c]pyrazol-5(2H,4H,6H)-yl)(2-isopropoxy-5-(methylsulfonyl)phenyl)methanone] | < 100 nM |
| CC(C)Oc1ccc(S(C)(=O)=O)cc1C(=O)N1Cc2cn(-c3ccc(F)c(F)c3)nc2C1 [Example 2, (2-(3,4-Difluorophenyl)pyrrolo[3,4-c]pyrazol-5(2H,4H,6H)-yl)(2-isopropoxy-5-(methylsulfonyl)phenyl)methanone] | < 100 nM |
| Cc1cc(-n2cc3c(n2)CN(C(=O)c2cc(C#N)ccc2OCC(C)(C)C)C3)ccn1 [Example 3, 3-(2-(2-Methylpyridin-4-yl)-2,4,5,6-tetrahydropyrrolo[3,4-c]pyrazole-5-carbonyl)-4-(neopentyloxy)benzonitrile] | < 100 nM |
| CC(Oc1ccc(C(=O)O)c(Cl)c1C(=O)N1Cc2cn(-c3ccc(F)cc3)nc2C1)C(F)(F)F (stereo not drawn) [Example 5, 2-Chloro-3-(2-(4-fluorophenyl)-2,4,5,6-tetrahydropyrrolo[3,4-c]pyrazole-5-carbonyl)-4-((1,1,1-trifluoropropan-2-yl)oxy)benzoic acid] | > 10000 nM |
| CC(Oc1ccc(C(=O)N2CCC2)c(Cl)c1C(=O)N1CCc2nn(-c3ccc(F)cc3)cc2C1)C(F)(F)F (stereo not drawn) [Example 6, 1-{2-Chloro-3-[2-(4-fluorophenyl)-2H 4H 5H 6H 7H-pyrazolo[4,3-c]pyridine-5-carbonyl]-4-[(1 1 1-trifluoropropan-2-yl)oxy]benzoyl}azetidine] | > 10000 nM |
| CC(Oc1ccc(C(N)=O)cc1C(=O)N1CCc2nn(-c3ccc(F)cc3)cc2C1)C(F)(F)F (stereo not drawn) [Example 7, 3-(2-(4-Fluorophenyl)-4,5,6,7-tetrahydro-2H-pyrazolo[4,3-c]pyridine-5-carbonyl)-4-((1,1,1-trifluoropropan-2-yl)oxy)benzamide] | 1000 to 10000 nM |
| Cc1cc(-n2cc3c(n2)CN(C(=O)c2cc(C#N)ccc2-c2cccc(F)c2)C3)ccn1 [Example 8, 4-(3-Fluorophenyl)-3-[2-(2-methylpyridin-4-yl)-2H 4H 5H 6H-pyrrolo[3,4-c]pyrazole-5-carbonyl]benzonitrile] | < 100 nM |
| CC(Oc1ccc(C#N)cc1C(=O)N1Cc2cn(-c3ccc(F)cc3)nc2C1)C(F)F (stereo not drawn) [Example 9, 4-((1,1-Difluoropropan-2-yl)oxy)-3-(2-(4-fluorophenyl)-2,4,5,6-tetrahydropyrrolo[3,4-c]pyrazole-5-carbonyl)benzonitrile] | < 100 nM |
| Cc1cccc(-n2cc3c(n2)CN(C(=O)c2c(OCC(F)(F)F)ccc(C#N)c2Cl)C3)n1 [Example 22, 2-Chloro-3-[2-(6-methylpyridin-2-yl)-2H 4H 5H 6H-pyrrolo[3,4-c]pyrazole-5-carbonyl]-4-(2 2 2-trifluoroethoxy)benzonitrile] | 100 to 1000 nM |
